The values that follow come from patent US20130324543A1, “REVERSAL OF HIGH BREAST CANCER RISK IN MAMMALS EXPOSED TO ESTROGENIC CHEMICALS IN UTERO BY ADULT EXPOSURE TO HDAC AND DNMT INHIBITORS” (Georgetown University, priority 2012, published 2013).

The structures appear in SMILES notation. Entries after “also recorded” stand apart in the source; their conditions may differ.

The nature of data set [1]: Puberty onset (vaginal opening) of female mice exposed in utero. It counts as in vivo, C57BL/6 mice. The conditions noted are these: female offspring, in utero exposure. The procedure: To assess possible changes in sexual maturation due to in utero ECD exposures during embryogenesis, the day of puberty onset was recorded, as defined based on vaginal opening (VO) in female mice. The mice were examined once a day starting on PND 21. In sexually mature mice, the stage of estrus cycle was determined based on the cytology of their vaginal smear (sampled by pipetting 20 μl PBS in and out of vagina onto a slide) as judged under the microscope. Stage of estrus cycle was determined for each mouse before necropsy and sample collection.

For data set [2], the system named is mammary tumors. Nature of the data set: MPA/DMBA mammary tumorigenesis in mice exposed in utero to EE2, GEN or BPA (Example 5). It counts as in vivo, C57BL/6 mice. The text has this: (§1) Additions to the basic diet were as follows: 1) cornstarch [control]; 2) EE2 0.1 ppm; 3) BPA 0.155 ppm; 4) GEN 500 ppm.
The nature of data set [3]: Immediate adverse effects of dietary exposure in adult non-pregnant littermates of dams. It counts as in vivo, mice. The conditions noted are these: last day of dietary exposure, data not shown. The procedure: For ethical reasons non-pregnant littermate females were used for blood collection instead of the dams, and the samples were taken on the last day of their dietary exposure. Blood was collected by heart puncture of anesthetized mice prior to euthanasia, and serum was separated by centrifugation (1000×g for 10 min) and stored frozen until hormone measurements.
In addition, possible immediate adverse effects of EE2, BPA and GEN exposure for adult mice were evaluated using the non-pregnant littermates of dams. Their body weights were recorded and the mammary gland morphology examined on the last day of their dietary exposure.

For data set [4], the system named is mammary gland. The experiment in a line: Mammary gland morphology of in utero exposed mice (whole mounts). It counts as in vivo, C57BL/6 mice. Conditions: female mice, PND 27. The procedure:
One of the two #4 abdominal mammary glands was dissected and fixed in Carnoy's fixative and processed into whole mounts as previously described (8). The other #4 abdominal gland was snap frozen in liquid nitrogen and stored in −80° C. for future analysis. One of the two thoracic #2-3 mammary glands was fixed in neutral buffered 10% formalin, embedded in paraffin and processed for histology using routine methods, and the other was snap frozen in liquid nitrogen, also stored in −80° C. for future analysis. Uterus was dissected, and one horn with the ovary and vagina attached was fixed in 10% formalin, embedded in paraffin and processed for histology, and the other horn and one ovary were frozen in liquid nitrogen and stored in −80° C.
To assess possible changes in mammary gland morphology, whole amounts of the 4th abdominal glands obtained on PND 27 were processed as previously described (4, 72). The total number of terminal end buds (TEBs) was counted. Identification of TEBs was based on the guidelines established by Russo and Russo (64). The total area (in pixels) of epithelium of the peripubertal (PND 27) mammary glands was analyzed by using ImageJ software (available through NIH web site) on digitized pictures of mammary whole mounts with ducts manually intensified black against white background (shown as an insert in FIG. 16). Ductal elongation (mammary epithelial outgrowth) on PND 50 was measured as the growth in millimeters from the end of the lymph node to the end of the epithelial tree. All the analyses were done blindly using an Olympus dissecting microscope.

Data set [5] deals with mammary tumors. Nature of the data set: MPA/DMBA-induced mammary tumorigenesis in mice exposed in utero to EE2 or GEN, with or without adult HDAC+DNMT inhibitors. The procedure:
Time pregnant C57BL/6 female mice were obtained from Harlan (Harlan-Teclad, USA) on gestation day 6, and were randomly assigned into three groups on the following day (gestation day 7). The basic diet formulation in the study was a semi-purified AIN93G (the American Institute of Nutrition) modified to replace soy oil for corn oil; all the diets of the three treatment groups were also purchased from Harlan. The diets were isocaloric, as ethinyl estradiol (EE2) or genistein (GEN) were added in the diet at the expense of comstarch. Additions to the basic diet were as follows: 1) EE2 0.1 ppm, and 2) GEN 500 ppm. EE2 was purchased from Sigma Chemicals (St. Louis, Mo., USA), and GEN was a gift from Dr. William Helferich (University of Illinois, Urbana, Ill., USA).
The pregnant dams were fed these diets until the day of the delivery of their pups (Post Natal Day 0, PND 0). Starting on PND 0, all mice were fed the control diet until the end of the study. Female mice born from the dams fed with the different above mentioned diets were used in the subsequent studies. For study outline, see FIG. 12. Animals were housed in a temperature- and humidity-controlled room under a 12-hour light-dark cycle. All animal procedures were approved by the Georgetown University Animal Care and Use Committee, and the experiments were performed following the National Institutes of Health guidelines for the proper and humane use of animals in biomedical research.
Mammary tumors were induced by administration of a subcutaneous injection of Medroxyprogesterone Acetate (MPA) to mice at 6 weeks of age, followed by administration of 1 mg 7,12-dimethylbenz(a)anthracene (DMBA) (Sigma, St. Louis, Mo.) weekly for four weeks (weeks 7, 8, 9, 10) (23). The carcinogen was dissolved in corn oil and administered by oral gavage in a volume of ca. 0.1 ml.
One week after the last dose of DMBA was administered, some of the mice were started on hydralazine (5 mg/kg/day) and valproic acid treatments (1.16 g/kg/day) treatments.
The two compounds were given in a drinking water, which was prepared fresh twice a week. The doses were chosen based on the literature (24-26). The number of animals in each group is as follows: Control n=18, Control given HDAC+DNMT inhibitors n=9, EE2 n=9, EE2 given HDAC+DNMT inhibitors n=6, GEN n=14, and GEN given HDAC+DNMT inhibitors n=8.
Mice were examined for mammary tumors by palpation once per week. Tumor growth was monitored for 16 weeks after the last dose of DMBA administration. During the follow-up, animals in which tumor burden approximated 10% of total body weight were euthanized, as required by the ethical guidelines of our institution. All surviving animals were sacrificed at that point for sample collection. The end-points for tumor data analysis were (i) latency to tumor appearance, (ii) the number of animals with tumors (tumor incidence), and (iii) the cumulative tumor area (tumor burden). The latter was achieved by adding the total tumor area per group each week and dividing it with the number of mice in the group.
(§2) Mammary tumor latency was compared with the final tumor burden in utero EE2 and GEN exposed mice to control mice, and in utero EE2 and GEN exposed mice to control mice exposed to HDAC+DNMT inhibitors separately; analysis was done using one-way ANOVA. Cumulative tumor burden during 16 weeks of tumor monitoring in the three groups, separately in those mice not given HDAC+DNMT inhibitors and those treated with the epigenetic drugs, was analysed using repeated measures one-way ANOVA. Log rank analysis was performed to compare mammary tumor incidence in the control and in utero EE2 and GEN exposed mice, again separately in those mice not given HDAC+DNMT inhibitors and those treated with the epigenetic drugs. Data for changes in DNMT1 expression among the groups in the mammary glands and tumors were assessed using two-way ANOVA, followed by Fisher LSD test

Data set [6] deals with DNMT1. Nature of the data set: DNMT1 mRNA expression (qRT-PCR) in mouse mammary glands and tumors. Conditions: in utero exposure vs control mice. It counts as in vivo.
From the text: Total RNA was extracted using an RNeasy lipid mini kit (Qiagen, CA), according to manufacturer's instructions. One […] of total RNA per sample was used as a template for oligo-dT primed cDNA synthesis with a Supterscript reverse transcriptase, using Taqman Reverse Transcription kit (Applied Biosystems, CA). The cDNA samples served then as templates for quantitative real time PCR analysis with specific primers for the target gene using QuantiTect SYBR green PCR kit (Qiagen Inc., Valencia, Calif.) and an ABI Prism 7900 Sequence Detection System. Each sample was run in triplicate on a 384-well plate, and the qPCR run was repeated twice. The Ct values were averaged from the triplicates for each sample. To normalize the target gene expression the ratio to control RNA was calculated, i.e. the averages of the Ct triplicates from the Dnmt1 gene were divided by the average of the triplicates from the 18S gene. To determine the fold change of the target gene expression the results are presented as 2^ΔCt, where ΔCt=CT^target−Ct^18S.
The primer sequences for m18S rRNA were as previously published by Wang et al. (27).
as §2

Data set [7] is described as follows: Body weight and growth of in utero exposed pups. It counts as in vivo, C57BL/6 mice. Conditions: in utero exposure.
From the text: as §1

For data set [8], the system named is mammary tumors. The experiment in a line: Acquired tamoxifen (TAM) resistance of mammary tumors in in utero exposed rats. It counts as in vivo. The conditions noted are these: 14-week follow-up, 7% in the control group.
Data set [9] has as its system PcGTs. Nature of the data set: Microarray expression of PcGTs in mammary glands of in utero E2 exposed rats. It counts as in vivo. Conditions: PND 50.
Data set [10] concerns MCF-7 breast cancer cells. Conditions: MCF-7 cells; cited from earlier work.
Data set [11] has as its system mammary gland. The experiment in a line: Mammary gland morphology and TEB number after maternal E2 or high fat diet (FIG. 8, 11). It counts as in vivo, rats. The text has this:
exposures during pregnancy: […] Statistical analysis was done using ANOVA followed by between group comparisons using Tukey test. […] TEBs are the sites which give rise to malignant mammary tumors in rats; similar structures in the human breast-terminal ductal lobular units-give rise to 90% of human breast cancers.

In data set [12] the test system is estrogen receptor alpha (ER-a). The experiment in a line: ER-a methylation and expression in mammary glands of in utero E2 exposed rats. The text has this: A high in utero estrogenic environment increases the risk of developing breast cancer (FIG. 1). Increased risk is associated with greater epithelial cell proliferation and survival during mammary gland development, driven by persistent changes in the mammary transcriptome. How these transcriptional changes are initiated and maintained is unclear. […] We then determined whether estrogen receptor alpha (ER-a) is methylated in the E2 exposed rats. […] These mechanisms could include non-coding microRNAs (miRNAs) which are essential for early development and which inhibit expression of their target genes. Since several miRNAs are known to be suppressed by E2 in MCF-7 human breast cancer cells (Maillot et al. Cancer Res 2009), we determined whether persistent changes in miRNA expression may be seen in the adult mammary glands of rats exposed to E2 in utero. miRNAs were measured using applied Biosystems TaqManR Array Rodent MicroRNA.

Data set [13] relates to mammary tumors. The experiment in a line: Mammary tumorigenesis in F1 rats exposed to E2 in utero (FIG. 7). It counts as in vivo. The conditions noted are these: F1 generation exposed in utero vs controls.

As for `CC(C)(c1ccc(O)cc1)c1ccc(O)cc1` [BPA, Bisphenol A], the “puberty onset / vaginal opening” value in data set [1] is listed as “no effect”. Further, the “cumulative tumor burden compared to the group exposed to control diet in utero” value in data set [2] (C57BL/6, mouse, in vivo) was ~1.5 times. The “mammary tumorigenesis (onset of tumor growth and cumulative tumor burden)” value in [2] (mouse, in vivo) is given as “Enhanced mammary tumorigenesis”. In [3], the “body weight or mammary epithelial development” value is “No significant differences”. In addition, the “total epithelial area of the glands” value in data set [4] was “significantly increased”.
On to `O=c1c(-c2ccc(O)cc2)coc2cc(O)cc(O)c12` [GEN, Genistein], for which the figures for the “puberty onset / vaginal opening” value in data set [1] and in [1] (listed as genistein) were “delayed vaginal opening” and “delayed puberty onset”, respectively. In addition, in [2] (in utero exposure), the “cumulative tumor burden compared to the group exposed to control diet in utero” value is recorded as “approximately four”. Also, the “mammary tumorigenesis (onset of tumor growth and cumulative tumor burden)” value in [2] (in utero exposure compared to controls) is reported as “Enhanced mammary tumorigenesis”. Besides, the “body weight or mammary epithelial development” value in [3] is recorded as “No significant differences”. In addition, the mammary tumorigenesis result in [5] (in utero exposed offspring compared to the controls) is recorded as “increased mammary tumorigenesis”. Also, in data set [5] (in utero exposure (EE2 0.1 ppm or GEN 500 ppm in dam's diet) vs control mice), the “Latency for first tumor to develop” value is given as “significantly shorter”. Also, the Mammary tumor incidence result in data set [5] (in utero exposure vs control mice) is “significantly higher”. Also, the “Final tumor burden per mouse” value in data set [5] (in utero exposure vs controls) was “significantly higher”. Further, the “DNMT1 expression in mammary tumors” value in data set [6] was “significantly lower”. The “expression of DNMT1 in mammary glands” value in data set [6] was “a similar increase; also recorded: an increase in DNMT1 expression; also recorded: persistent up-regulation”. In data set [4], the “total epithelial area of the glands” value is on record as “nearly significantly increased”. Besides, the “birthweight, or postnatal weight development” value in [7] is on record as “did not alter”.
As for `C[C@]12CC[C@@H]3c4ccc(O)cc4CC[C@H]3[C@@H]1CC[C@@H]2O` [E2, estradiol], the “acquired resistance to TAM” value in [8] worked out at 50%. The “Fold down-regulated in E2 group” value in data set [9] (Actn1, alpha 1 actin) was −5.63 (p < 0.03) Fold; in data set [9] (Ccl2, chemokine (C-C motif) ligand 2), −1.81 (0.00) Fold; in data set [9] (Ckm, muscle creatine kinase), −7.68 (p < 0.01) Fold; in data set [9] (H19/Pro2605, H19fetal liver mRNA (imprinted gene)) it was −3.28 (p < 0.03) Fold; in [9] (Myh13, heavy polypeptide 13 myosin) it was −6.08 (p < 0.01) Fold; in data set [9] (Myl2, light polypeptide 2 myosin) it was −10.19 (p < 0.02) Fold. In addition, in [9] (Pvnlb, parvalbumin), the “Fold down-regulated in E2 group” value is −8.64 (p < 0.03) Fold. In addition, the “Fold up-regulated in E2 group” value in data set [9] (Hmgcs2, 3-hydroxy-3-methylglutaryl-Coenzyme A synthase 2) was 2.46 (p < 0.00) Fold; in data set [9] (Lep, Leptin) it was 1.59 (p < 0.02) Fold; in data set [9] (Pdk4, puruvate dehydrogenase kinase isoenzyme 4), 1.82 (p < 0.02) Fold. For the same molecule, in data set [10], the “expression of the same miRNAs” value is recorded as “down-regulated”. Also, in data set [11] (1st generation offspring, postnatal day 21), the “number of TEBs” value is reported as “increased”. In addition, the “mammary gland morphology (parenchyma, TEBs, ductal elongation, size)” value in data set [11] (21-day-old rats exposed to 10 μg in utero vs control rats) is “contain a larger parenchyma and more TEBs, exhibit more advanced ductal elongation, and are larger”. The “expression of ER-a” value in [12] is on record as “up-regulated”. Also, the Mammary tumor incidence result in [13] was “higher”. Moreover, the total tumor burden entry in [13] is “also higher”. Besides, the tumor multiplicity result in [13] was “also higher”.
